According to patent US5607926A, “Cephalosporin antibiotics” (Microcide Pharmaceuticals, Inc., priority 1995, dated 1997):
Converted amounts (≈) assume the structure as drawn. Structures can show the parent of a compound that is named as a salt. Where two headings read alike, the source gives them in different places.

Experiments:
Format in all cases: cell-based
S. aureus ATCC 29213 = test: In vitro antibacterial evaluation, MIC by agar dilution, S. aureus ATCC 29213; conditions: Staphylococcus aureus, ATCC29213
Procedure: (§1) The compounds of the invention were evaluated against several β-lactamresistant bacteria strains by determining the minimum inhibitory concentration (MIC, μg/ml) of each compound with respect to each strain. The MIC, the lowest concentration of antibiotic which inhibits growth of the test organism, was determined by the agar dilution method.
(§2) To determine the MIC for bacterial isolates, the test compound was incorporated in a series of two-fold dilutions into liquified Mueller-Hinton agar. Upon solidification, a number of different bacterial strains were spot inoculated with a replicating device onto the agar surface. […] The procedures used in these studies have been standardized by the National Committee for Clinical Laboratory Standards (NCCLS), as per the NCCLS publication entitled METHODS FOR DILUTION ANTIMICROBIAL SUSCEPTIBILITY TESTS (1991), which is incorporated herein by reference.
(§3) Aliquots of antimicrobial agents were prepared in phosphate buffered saline (PBS) at pH 7.2. Tween 20 or DMSO was used as a solubilizing vehicle as needed. Standard methods of vortexing, sonicating and gentle heat were used to facilitate solubilizing the test agent. Typically, the concentration of the stock solution was 10× that of the highest drug concentration tested. A 1.28 mg/mL stock solution was used with a subsequent highest working concentration of 128 μg/mL. Serial two-fold dilutions were done through ≤0.25 μg/mL. Each drug level was tested in duplicate. Two-fold drug dilutions were done in sterile 50 mL tubes with a final drug volume of 5 mL. Upon the addition of 45 mL of molten agar, a 10-fold dilution resulted. Two, 25 mL. plates were then poured into 15×150 mm square Petri plates with grids and allowed to harden.
(§4) A control plate with a reference drug, either cefotaxime, vancomycin or imipenem, was used as the positive growth control. Stock concentrations of reference antibiotics were prepared and frozen at -80° C. Upon preparation, the control plates were sealed and stored in the refrigerator for up to 1 week prior to use; however, imipenem control plates had to be prepared just prior to use. All test plates were used within 24 hours of preparation.
(§5) Satisfactory results were obtained where the inoculum contained about 10^4 colony forming units (cfu) ±0.5 logs. Starting with pure cultures of the test isolates on agar plates, a few isolated colonies were transferred to a tube of nutrient broth and allowed to grow 4-6 hours at 35°-36° C. to reach log-phase growth. Dropwise addition of the broth culture to PBS was done to match a 0.5 McFarland turbidity standard equal to 10^8 cfu/mL. This was further diluted ten-fold in PBS to reach a working inoculum concentration of 10^7 cfu/mL. When 1 μL of the working inoculum was applied to the agar surface a concentration of about 10^4 cfu per spot was obtained.
(§6) Disposable sterile 1 μL loops were used to inoculate test plates, with each isolate in a designated grid on the agar plate. An alternate method of inoculation involved the use of a replica plater, a device with 48 steel pins allowing the simultaneous inoculation of multiple isolates. After the spots had dried, the plates were incubated at 35°-36° C. for 16-20 hours. Endpoints were assessed as the minimum inhibitory concentration (MIC) of antimicrobial agent.

[1] = system: S. aureus 76 (Meth^R)(lac^+); test: In vitro antibacterial evaluation, MIC by agar dilution, S. aureus 76; conditions: Staphylococcus aureus, read-out: MIC
Procedure: as §1, §2, §3, §4, §5, §6

[2] = system: S. aureus Col8A (Meth^S)(lac^-); test: In vitro antibacterial evaluation, MIC by agar dilution, S. aureus Col8A; conditions: Staphylococcus aureus
Procedure: as §1, §2, §3, §4, §5, §6
The novel agents of this invention are notable for their enhanced activity against S. aureus Col and Enterococci (E. faecium and E. faecalis). The S. aureus Col strain is a high-level PBP2a producer, whereas S. aureus Col 8A, its isogenic partner, lacks PBP2a. […] Thus, the compounds of the present invention are effective against PBP2a-producing bacteria.

S. haemolyticus (Meth^R) = test: In vitro antibacterial evaluation, MIC by agar dilution, S. haemolyticus; conditions: Staphylococcus haemolyticus, read-out: MIC
Procedure: as §1, §2, §3, §4, §5, §6

E. faecium ATCC 35667 = test: In vitro antibacterial evaluation, MIC by agar dilution, E. faecium ATCC 35667; conditions: Enterococcus faecium, ATCC35667, read-out: MIC
Procedure: as §1, §2, §3, §4, §5, §6

E. faecalis ATCC 29212 = test: In vitro antibacterial evaluation, MIC by agar dilution, E. faecalis ATCC 29212; conditions: Enterococcus faecalis, ATCC29212; E. faecalis ATCC 29212; read-out: MIC
Procedure: as §1, §2, §3, §4, §5, §6

E. coli ATCC 25922 = test: In vitro antibacterial evaluation, MIC by agar dilution, E. coli ATCC 25922; conditions: Escherichia coli, ATCC25922, read-out: MIC
Procedure: as §1, §2, §3, §4, §5, §6

P. aeruginosa ATCC 27853 = test: In vitro antibacterial evaluation, MIC by agar dilution, P. aeruginosa ATCC 27853; conditions: Pseudomonas aeruginosa, ATCC27853, read-out: MIC
Procedure: as §1, §2, §3, §4, §5, §6

[3] = S. aureus ATCC 29213, read-out: MIC

SMILES | MIC (S. aureus ATCC 29213) | MIC [1] | MIC [2] | MIC (S. haemolyticus (Meth^R)) | MIC (E. faecium ATCC 35667) | MIC (E. faecalis ATCC 29212) | MIC (E. coli ATCC 25922) | MIC (P. aeruginosa ATCC 27853) | MIC (S. aureus ATCC 29213; [3])
Nc1nnc(SCC(=O)N[C@@H]2C(=O)N3C(C(=O)O)=C(Sc4ccnn4-c4ccccc4)CS[C@H]23)s1 [Cmpd 120] | 0.25 mg/L (≈ 0.456 µM) | 16 mg/L (≈ 29.2 µM) | 0.25 mg/L (≈ 0.456 µM) | 32 mg/L (≈ 58.4 µM) | 8 mg/L (≈ 14.6 µM) | 4 mg/L (≈ 7.3 µM) | > 32 mg/L | > 32 mg/L | 
O=C(O)C1=C(Sc2ccnn2-c2ccccc2)CS[C@@H]2[C@H](NC(=O)C(=NO)c3ccco3)C(=O)N12 [Cmpd 121, (7R)-7-[2-(2-furyl)-2-(hydroxyimino)acetamido]-3-(1-N-phenylpyrazol-5-ylthio)-3-cephem-4-carboxylic acid] |  | 8 mg/L (≈ 15.6 µM) | 0.5 mg/L (≈ 0.977 µM) | 16 mg/L (≈ 31.3 µM) | 2 mg/L (≈ 3.91 µM) | 0.5 to 1 mg/L (≈ 0.977 to 1.95 µM) | > 32 mg/L | > 32 mg/L | 0.5 mg/L (≈ 0.977 µM)
O=C(Cc1ccccc1)N[C@@H]1C(=O)N2C(C(=O)O)=C(Sc3ccnn3-c3ccc(F)cc3)CS[C@H]12 [Cmpd 123, (7R)-7-[(Phenylacetyl)amino]-3-(1-N-(4-fluorophenyl)pyrazol-5-ylthio)-3-cephem-4-carboxylic acid] |  | 8 mg/L (≈ 15.7 µM) | ≤ 0.06 mg/L | 16 mg/L (≈ 31.3 µM) | 4 mg/L (≈ 7.83 µM) | 2 mg/L (≈ 3.92 µM) | > 32 mg/L | > 32 mg/L | 0.06 mg/L (≈ 0.118 µM)
N=C(N)SCc1ccccc1SC1=C(C(=O)O)N2C(=O)[C@@H](NC(=O)Cc3ccc(CN)cc3)[C@H]2SC1 [Cmpd 124, (7R)-7-[((4-aminomethylphenyl)acetyl)amino]-3-(2-isothiouroniummethylphenylthio)-3-cephem-4-carboxylate, trifluoroacetic acid salt] | 0.25 mg/L | 16 mg/L | 0.25 mg/L | 16 mg/L | 1 mg/L | 1 mg/L | > 32 mg/L | > 32 mg/L | 
O=C(Cc1ccccc1)N[C@@H]1C(=O)N2C(C(=O)O)=C(Sc3ccccc3-n3cccn3)CS[C@H]12 [Cmpd 132, (7R)-7-[(Phenylacetyl)amino]-3-(2-(pyrazol-1-yl)phenylthio)-3-cephem-4-carboxylic acid] |  | 32 mg/L (≈ 65 µM) | 0.25 mg/L (≈ 0.508 µM) | > 32 mg/L | 4 mg/L (≈ 8.12 µM) | 4 mg/L (≈ 8.12 µM) | > 32 mg/L | > 32 mg/L | 0.125 mg/L (≈ 0.254 µM)
CSCC(=O)N[C@@H]1C(=O)N2C(C(=O)O)=C(Sc3ccccc3CSC(=N)NN)CS[C@H]12 [Cmpd 133, (7R)-7-[(methylthioacetyl)amino]-3-(2-(N-amino)isothiouroniummethylphenylthio)-3-cephem-4-carboxylate, inner salt] | 0.125 mg/L | 8 mg/L | 0.125 mg/L | 16 mg/L | 1 mg/L | 1 mg/L | > 32 mg/L | > 32 mg/L | 
N=C(N)SCc1ccccc1SC1=C(C(=O)O)N2C(=O)[C@@H](NC(=O)CSCCCI)[C@H]2SC1 [Cmpd 134, (7R)-7-[(3-iodoprop-1-ylthioacetyl)amino]-3-(2-isothiouroniummethylphenylthio)-3-cephem-4-carboxylate, inner salt] | 0.125 mg/L | 8 mg/L | 0.125 mg/L | 16 mg/L | 1 mg/L | 0.5 mg/L | > 32 mg/L | > 32 mg/L | 
CSCC(=O)N[C@@H]1C(=O)N2C(C(=O)O)=C(Sc3ccccc3CNC(=N)N)CS[C@H]12 [Cmpd 135, (7R)-7-[(Methylthioacetyl)amino]-3-(2-guanidiniummethylphenylthio)-3-cephem-4-carboxylate, inner salt] |  | 16 mg/L | ≤ 0.06 mg/L | 32 mg/L | 2 to 4 mg/L | 2 to 4 mg/L | > 32 mg/L | > 32 mg/L | 0.125 mg/L
